Test results from ChEMBL document CHEMBL4219239, “Synthesis and biological evaluation of aryl-oxadiazoles as inhibitors of Mycobacterium tuberculosis” (Bioorg Med Chem Lett, 2018).
≈ marks a conversion by molar mass, not a printed value.

What was measured:
[1] = Metabolic stability in rat liver microsomes at 2 uM after 30 mins by LC-MS method; assay type: ADME, microsome; conditions: 0.5 h
[2] = Aqueous solubility of the compound at pH 6; assay type: physicochemical; conditions: buffer
[3] = Aqueous solubility of the compound at pH 7.4; assay type: physicochemical; conditions: buffer
[4] = test system: Mycobacterium tuberculosis; experiment: Antitubercular activity against Mycobacterium tuberculosis H37Rv expressing DsRed using 7H9-Ty-10BT medium after 6 days by 2-fold serial dilution method; assay type: functional; conditions: 144 h

SMILES | Stability [1] | also measured
c1ccc(-c2nnc(CN3CCc4ccccc4C3)o2)cc1 | Stable | 
c1csc(-c2nnc(CN3CCOc4ccccc43)o2)c1 | Stable | 
c1ccc(-c2nnc(CN3CCc4ccccc43)o2)cc1 | Stable | 
CN(Cc1nnc(-c2ccccc2)o1)Cc1c(F)cccc1Cl | Stable | 
c1coc(-c2nnc(Cc3cccc4ccccc34)o2)c1 | Stable | 
c1coc(-c2nnc(SCc3cccc4ccccc34)o2)c1 | Stable | 
CN(Cc1ccc(F)cc1)Cc1nnc(-c2ccccc2)o1 | Stable | 
c1csc(-c2nnc(COc3ccc4c(c3)OCO4)o2)c1 | Stable | 
c1csc(-c2nnc(Cc3cccc4c3OCCO4)o2)c1 | Stable | 
CN(Cc1ccc(C(F)(F)F)cc1)Cc1nnc(-c2cccs2)o1 | Stable | 
CN(Cc1ccccc1)Cc1nnc(-c2ccco2)o1 | Stable | 
FC(F)(F)c1ccc(-c2nnc(CN3CCCc4ccccc43)o2)cc1 | Stable | 
c1ccc(-c2nnc(CN3Cc4ccccc4C3)o2)cc1 | Stable | 
Fc1cccc(Cl)c1COCc1nnc(-c2ccco2)o1 | Stable | 
FC(F)(F)c1ccc(-c2nnc(CN3CCOc4ccccc43)o2)cc1 | Stable | 
CN(Cc1nnc(-c2ccco2)o1)C(=O)c1c(F)cccc1Cl | Stable | 
Fc1ccc(-c2nnc(CN3CCCc4ccccc43)o2)cc1 | Stable | 
CN(Cc1nnc(-c2ccco2)s1)Cc1c(F)cccc1Cl | Stable | 
c1ccc(-c2nnc(CN3CCCC3c3ccccc3)o2)cc1 (stereo unspecified) | Stable | 
CN(Cc1ccc(C(F)(F)F)cc1)Cc1nnc(-c2ccccc2)o1 | Stable | 
CN(CCc1c(F)cccc1Cl)c1nnc(-c2ccco2)o1 | Stable | 

SMILES | Stability [1] | also measured
c1ccc(-c2nnc(CN3CCCc4ccccc43)o2)cc1 | Stable | 
c1csc(-c2nnc(CN3Cc4ccccc4C3)o2)c1 | Stable | 
c1csc(-c2nnc(Cc3ccc4ccccc4c3)o2)c1 | Stable | 
CN(Cc1nnc(-c2ccco2)o1)Cc1c(F)cccc1Cl.O=C(O)/C=C\C(=O)O |  | solubility [2]: 687 µg/mL; solubility thermodynamic [3]: 717 µg/mL
c1ccc(-c2nnc(CN3CCOc4ccccc43)o2)cc1 | Stable | 
Fc1ccc(-c2nnc(CN3CCc4ccccc4C3)o2)cc1 | Stable | 
CN(Cc1ccccc1)Cc1nnc(-c2cccs2)o1 | Stable | 
c1ccc(C2CCCN2Cc2nnc(-c3cccs3)o2)cc1 (stereo unspecified) | Stable | 
c1csc(-c2nnc(CN3CCc4ccccc43)o2)c1 | Stable | 
CC1CCc2ccccc2N1Cc1nc(-c2ccsc2)no1 (stereo unspecified) | Stable | MIC [4]: 2.2 µM (≈ 0.685 µg/mL)
Fc1ccc(-c2nnc(CN3CCOc4ccccc43)o2)cc1 | Stable | 
c1csc(-c2nnc(CN3CCc4ccccc4C3)o2)c1 | Stable | 
CN(Cc1nnc(-c2ccco2)o1)Cc1c(F)cccc1Cl | Stable | MIC [4]: 0.8 µM (≈ 0.257 µg/mL)
Fc1cccc(Cl)c1CNCc1nnc(-c2ccco2)o1 | Stable | 
c1csc(-c2nnc(Cc3cccc4ccccc34)o2)c1 | Stable | MIC [4]: 0.4 µM (≈ 0.117 µg/mL)
FC(F)(F)c1ccc(-c2nnc(CN3CCc4ccccc4C3)o2)cc1 | Stable | 
c1ccc(Cc2nnc(-c3cccs3)o2)cc1 | Stable | 
CN(Cc1nnc(-c2ccco2)o1)CC1CCCCC1 | Stable | 
CN(Cc1nnc(-c2cccs2)o1)Cc1c(F)cccc1Cl | Stable | 
CN(Cc1nnc(-c2ccco2)o1)Cc1ccccc1Cl | Stable | 
c1csc(-c2nnc(CN3CCCc4ccccc43)o2)c1 | Stable | 
